{"source": "paper PMC8256334", "about": "“Simultaneous Determination of a Novel PD-L1 Inhibitor, IMMH-010, and Its Active Metabolite, YPD-29B, in Rat Biological Matrices by Polarity-Switching Liquid Chromatography-Tandem Mass Spectrometry: Application to ADME Studies” (Frontiers in Pharmacology, 2021)", "key": {"[1]": {"experiment": "Tissue distribution study in rats", "assay_type": "in vivo, Sprague-Dawley rats", "settings": "for concentration in adrenal gland / concentration in brain / concentration in heart / concentration in kidney / concentration in liver / concentration in lung / concentration in lymph / concentration in plasma / concentration in spleen / concentration in thymus: n = 5; for Kp at 0.25 h / Kp at 0.5 h: female, Sprague-Dawley, rat, oral, i.g. 10 mg/kg IMMH-010 maleate, read-out: T/P (tissue-to-plasma partition)", "procedure": "Female Sprague-Dawley rats (200 ± 20 g, Vital River, Beijing, China) were kept in standard environmental conditions. Rats were fasted overnight with free access to water and randomly assigned to different groups before the experiments. All animal protocols were approved by the Institute Animal Care and Welfare Committee of the Institute of Materia Medica, Chinese Academy of Medical Sciences and Peking Union Medical College.\nThe tissue distribution study was performed 15 min, 30 min, 4 h and 12 h after i. g. administration of 10 mg/kg IMMH-010 maleate. Blood was collected and centrifuged at 5,000 rpm for 10 min. The heart, liver, brain, spleen, lung, kidney, adrenal gland, thymus, and lymph were harvested immediately. The tissues were washed with normal saline and blotted dry with filter paper. All samples were stored at -20°C before analysis."}, "[2]": {"system": "various carcinoma xenograft models", "settings": "cited from earlier work"}, "[3]": {"settings": "time 0.25 (15 min) after i.g. 10 mg/kg IMMH-010 maleate"}, "[4]": {"settings": "time 0.5 (30 min) after i.g. 10 mg/kg IMMH-010 maleate"}, "[5]": {"settings": "time 4 (4 h) after i.g. 10 mg/kg IMMH-010 maleate"}}, "note": "Read-outs that look alike come from different tables or passages of the source."}
{"smiles": "CC(C)OC(=O)C(CO)NCc1cc(Cl)c(OCc2cccc(-c3ccccc3)c2Br)cc1OCc1cccnc1", "note": "(stereo not shown) [IMMH-010, 2-[4-(2-bromo-biphenyl-3-ylmethoxy)-5-chloro-2-(pyridin-3-ylmethoxy)-benzylamino]-3-hydroxy-propionic acid isopropyl ester]", "values": [{"measurement": "concentration in adrenal gland", "setting": "[1]; adrenal gland, time 0.25 (15 min) after i.g. 10 mg/kg IMMH-010 maleate", "value": "80.8 ± 47.4 ng/ml or ng/g"}, {"measurement": "concentration in adrenal gland", "setting": "[1]; adrenal gland, time 0.5 (30 min) after i.g. 10 mg/kg IMMH-010 maleate", "value": "204 ± 132 ng/ml or ng/g"}, {"measurement": "concentration in adrenal gland", "setting": "[1]; adrenal gland, time 4 (4 h) after i.g. 10 mg/kg IMMH-010 maleate", "value": "41.3 ± 6.9 ng/ml or ng/g"}, {"measurement": "concentration in brain", "setting": "[1]; brain, time 0.25 (15 min) after i.g. 10 mg/kg IMMH-010 maleate", "value": "6.22 ± 0.34 ng/ml or ng/g"}, {"measurement": "concentration in brain", "setting": "[1]; brain, time 0.5 (30 min) after i.g. 10 mg/kg IMMH-010 maleate", "value": "3.66 ± 3.35 ng/ml or ng/g"}, {"measurement": "concentration in brain", "setting": "[1]; brain, time 4 (4 h) after i.g. 10 mg/kg IMMH-010 maleate", "value": "BLQ"}, {"measurement": "Kp at 0.25 h", "setting": "[1]; adrenal gland", "value": 25}, {"measurement": "Kp at 0.5 h", "setting": "[1]; adrenal gland", "value": 51.1}, {"measurement": "Kp at 0.25 h", "setting": "[1]; brain", "value": 1.9}, {"measurement": "Kp at 0.5 h", "setting": "[1]; brain", "value": 0.9}, {"measurement": "Kp at 0.25 h", "setting": "[1]; heart", "value": 5.4}, {"measurement": "Kp at 0.5 h", "setting": "[1]; heart", "value": 9.5}, {"measurement": "Kp at 0.25 h", "setting": "[1]; liver", "value": 3.8}, {"measurement": "Kp at 0.5 h", "setting": "[1]; liver", "value": 6.4}, {"measurement": "Kp at 0.5 h", "setting": "[1]; lung", "value": 0.3}, {"measurement": "Kp at 0.25 h", "setting": "[1]; lymph", "value": 1.7}, {"measurement": "Kp at 0.5 h", "setting": "[1]; lymph", "value": 21.2}, {"measurement": "Kp at 0.25 h", "setting": "[1]; spleen", "value": 0.9}, {"measurement": "Kp at 0.5 h", "setting": "[1]; spleen", "value": 2}, {"measurement": "concentration in heart", "setting": "[1]; heart, time 0.25 (15 min) after i.g. 10 mg/kg IMMH-010 maleate", "value": "17.3 ± 10.5 ng/ml or ng/g"}, {"measurement": "concentration in heart", "setting": "[1]; heart, time 0.5 (30 min) after i.g. 10 mg/kg IMMH-010 maleate", "value": "38.1 ± 25.8 ng/ml or ng/g"}, {"measurement": "concentration in heart", "setting": "[1]; heart, time 4 (4 h) after i.g. 10 mg/kg IMMH-010 maleate", "value": "1.92 ± 2.66 ng/ml or ng/g"}, {"measurement": "concentration in kidney", "setting": "[1]; [3]", "value": "BLQ"}, {"measurement": "concentration in kidney", "setting": "[1]; [4]", "value": "BLQ"}, {"measurement": "concentration in kidney", "setting": "[1]; [5]", "value": "BLQ"}, {"measurement": "concentration in liver", "setting": "[1]; liver, time 0.25 (15 min) after i.g. 10 mg/kg IMMH-010 maleate", "value": "12.4 ± 13.4 ng/ml or ng/g"}, {"measurement": "concentration in liver", "setting": "[1]; liver, time 0.5 (30 min) after i.g. 10 mg/kg IMMH-010 maleate", "value": "25.6 ± 19.8 ng/ml or ng/g"}, {"measurement": "concentration in liver", "setting": "[1]; liver, time 4 (4 h) after i.g. 10 mg/kg IMMH-010 maleate", "value": "6.30 ± 5.77 ng/ml or ng/g"}, {"measurement": "concentration in lung", "setting": "[1]; lung, time 0.25 (15 min) after i.g. 10 mg/kg IMMH-010 maleate", "value": "BLQ"}, {"measurement": "concentration in lung", "setting": "[1]; lung, time 0.5 (30 min) after i.g. 10 mg/kg IMMH-010 maleate", "value": "1.37 ± 3.06 ng/ml or ng/g"}, {"measurement": "concentration in lung", "setting": "[1]; lung, time 4 (4 h) after i.g. 10 mg/kg IMMH-010 maleate", "value": "BLQ"}, {"measurement": "concentration in lymph", "setting": "[1]; lymph, time 0.25 (15 min) after i.g. 10 mg/kg IMMH-010 maleate", "value": "5.46 ± 5.1 ng/ml or ng/g"}, {"measurement": "concentration in lymph", "setting": "[1]; lymph, time 0.5 (30 min) after i.g. 10 mg/kg IMMH-010 maleate", "value": "84.6 ± 87.9 ng/ml or ng/g"}, {"measurement": "concentration in lymph", "setting": "[1]; lymph, time 4 (4 h) after i.g. 10 mg/kg IMMH-010 maleate", "value": "12.5 ± 7.1 ng/ml or ng/g"}, {"measurement": "concentration in plasma", "setting": "[1]; [3]", "value": "3.23 ± 2.28 ng/ml or ng/g"}, {"measurement": "concentration in plasma", "setting": "[1]; [4]", "value": "3.99 ± 3.45 ng/ml or ng/g"}, {"measurement": "concentration in plasma", "setting": "[1]; [5]", "value": "BLQ"}, {"measurement": "concentrations in tissues at 12 h", "setting": "[1]; rat tissues, 12 h after oral 10 mg/kg IMMH-010 maleate", "value": "below the LLOQ"}, {"measurement": "tissues of main distribution", "setting": "[1]; rats, oral 10 mg/kg IMMH-010 maleate", "value": "adrenal gland, followed by the lymph, heart, liver and spleen"}, {"measurement": "concentration in spleen", "setting": "[1]; spleen, time 0.25 (15 min) after i.g. 10 mg/kg IMMH-010 maleate", "value": "2.98 ± 2.77 ng/ml or ng/g"}, {"measurement": "concentration in spleen", "setting": "[1]; spleen, time 0.5 (30 min) after i.g. 10 mg/kg IMMH-010 maleate", "value": "8.08 ± 8.51 ng/ml or ng/g"}, {"measurement": "concentration in spleen", "setting": "[1]; spleen, time 4 (4 h) after i.g. 10 mg/kg IMMH-010 maleate", "value": "0.848 ± 1.896 ng/ml or ng/g"}, {"measurement": "concentration in thymus", "setting": "[1]; [3]", "value": "BLQ"}, {"measurement": "concentration in thymus", "setting": "[1]; [4]", "value": "BLQ"}, {"measurement": "concentration in thymus", "setting": "[1]; [5]", "value": "BLQ"}, {"measurement": "antitumor activity", "setting": "[2]", "value": "significant antitumor activity"}]}
